{
  "source": "paper PMC5499624",
  "about": "(Biomolecules & Therapeutics, 2017)",
  "key": {"[1]": {"tested_on": "[^3H]imperatorin uptake by TR-BBB cells", "type": "in vitro ADME, rat", "conditions": "37°C, 5 min"}, "[2]": {"type": "in vivo, SD rats", "conditions": "for AUC: 60 min; for Uptake: 60 min after IV"}, "[3]": {"tested_on": "rat brain", "assay": "[^3H]imperatorin brain uptake by internal carotid artery perfusion", "type": "in vivo, SD rats", "conditions": "ICAP"}, "[4]": {"tested_on": "[^3H]imperatorin brain uptake", "assay": "Brain uptake index", "type": "in vivo, rat", "conditions": "15 s after injection"}, "[5]": {"assay": "[^3H]imperatorin uptake by TR-BBB cells", "type": "in vitro ADME, rat", "conditions": "rat, pH 7.4"}, "[6]": {"tested_on": "TR-BBB cells", "assay": "[^3H]imperatorin uptake by TR-BBB cells", "type": "in vitro ADME, rat"}, "[7]": {"tested_on": "TR-BBB cells", "assay": "Uptake of radiolabelled substrates in siRNA-transfected TR-BBB cells", "type": "in vitro ADME, rat", "conditions": "37°C, 5 min"}, "[8]": {"tested_on": "P-glycoprotein (P-gp)", "conditions": "ref Lili et al. (2013), cited from earlier work"}, "[9]": {"conditions": "sucrose; ref Lee and Kang, 2016; cited from earlier work"}, "[10]": {"tested_on": "hCMEC/D3 cells", "conditions": "ref Kitamura et al., 2014, Sadiq et al., 2011; cited from earlier work"}, "[11]": {"tested_on": "[^3H]imperatorin brain uptake", "type": "in vivo, SD rats", "conditions": "compound 1 mM, ICAP 4 ml/min for 15 sec, pH 7.4"}, "[12]": {"tested_on": "[^3H]imperatorin uptake by TR-BBB cells", "assay": "Inhibition of [^3H]imperatorin uptake by TR-BBB cells by selected compounds", "type": "in vitro ADME, rat", "conditions": "compound 1 mM (L-Carnitine: concentration cell empty), 37°C, 5 min"}, "[13]": {"tested_on": "proton coupled antiporter", "conditions": "read-out: in vivo Km; mouse, in situ brain perfusion; ref André et al., 2009; cited from earlier work"}},
  "note": "Where a name gives a salt, the structure may show the parent alone. Read-outs that look alike come from different tables or passages of the source.",
  "data": [
    {"compound": "[N-]=[N+]=[N-].[Na+]", "note": "[Sodium azide, sodium azide]", "values": [
      {"measurement": "Relative Uptake (% of Control) of [^3H]imperatorin", "setting": "[1]; sodium azide 0.1%, pretreatment, pH 7.4", "value": "63.8 ± 2.7 % of Control"}
    ]},
    {"compound": "CC(C)=CCOc1c2occc2cc2ccc(=O)oc12", "note": "[Imperatorin]", "values": [
      {"measurement": "Brain VD relative to [^14C]sucrose", "setting": "[2]; IV injection, rat brain", "value": "about 6 fold"},
      {"measurement": "BBB PS product relative to sucrose", "setting": "[2]; IV injection, sucrose value from Lee and Kang, 2016", "value": 12, "unit": "fold"},
      {"measurement": "BBB PS product relative to sucrose", "setting": "[2]; IV injection, sucrose value from Wu and Pardridge, 1999", "value": 20, "unit": "fold"},
      {"measurement": "AUCss", "setting": "[2]; SD rats, single IV, plasma", "value": "38.2 ± 1.5", "unit": "% ID min/mL"},
      {"measurement": "AUC", "setting": "[2]; SD rats, single IV, plasma", "value": "22.1 ± 0.8", "unit": "% ID min/mL"},
      {"measurement": "AUC", "setting": "[2]; SD rats, single IV, plasma, listed as [^3H]imperatorin", "value": "22 ± 1", "unit": "% ID min/mL"},
      {"measurement": "Uptake", "setting": "[2]; brain, SD rats", "value": "0.086 ± 0.008", "unit": "%ID/g"},
      {"measurement": "Uptake", "setting": "[2]; heart, SD rats", "value": "1.62 ± 0.10", "unit": "%ID/g"},
      {"measurement": "Uptake", "setting": "[2]; kidney, SD rats", "value": "3.70 ± 0.33", "unit": "%ID/g"},
      {"measurement": "Uptake", "setting": "[2]; liver, SD rats", "value": "1.21 ± 0.08", "unit": "%ID/g"},
      {"measurement": "Uptake", "setting": "[2]; lung, SD rats", "value": "1.68 ± 0.03", "unit": "%ID/g"},
      {"measurement": "Brain transport compared with control", "setting": "[3]; carbonate-free HEPES", "value": "markedly decreased"},
      {"measurement": "Vmax of brain influx", "setting": "[3]; imperatorin 0–1 mM, pH 7.4", "value": 0.50, "unit": "µmol/min/g"},
      {"measurement": "Brain transport compared with control", "setting": "[3]; mannitol Na+-free buffer", "value": "significantly increased"},
      {"measurement": "Kd (unsaturated component, passive diffusion)", "setting": "[3]; nonlinear regression", "value": "3.1e-17", "unit": "µL/min/g"},
      {"measurement": "Km", "setting": "[3]; read-out: apparent Km of brain influx, imperatorin 0–1 mM, pH 7.4", "value": 180, "unit": "µM"},
      {"measurement": "BUI of [^3H]imperatorin in presence of inhibitor", "setting": "[4]; inhibitor 1 mM", "value": "24.9 ± 3.4", "unit": "%"},
      {"measurement": "microsomal CLint at 5 min", "setting": "[5]", "value": 17, "unit": "µL/min/mg"},
      {"measurement": "maximum rate of uptake velocity (Vmax)", "setting": "[6]; 5 min, pH 7.4", "value": 2.22, "unit": "nmol/mg protein/min"},
      {"measurement": "y-intersection of time course uptake (cell-to-medium ratio)", "setting": "[6]; at 30 sec, Fig. 4", "value": "approximately 140 ul/mg protein"},
      {"measurement": "[^3H]Imperatorin uptake compared to control", "setting": "[6]; extracellular pH 6.4", "value": "significantly reduced"},
      {"measurement": "[^3H]Imperatorin uptake compared to control", "setting": "[6]; extracellular pH 8.4", "value": "markedly increased"},
      {"measurement": "[^3H]Imperatorin uptake compared to control", "setting": "[6]; intracellular acidification by pretreatment with NH4Cl", "value": "increased"},
      {"measurement": "[^3H]Imperatorin uptake compared to control", "setting": "[6]; pHi alkalized by 30 mM NH4Cl", "value": "reduced"},
      {"measurement": "Km", "setting": "[6]; read-out: Michaelis-Menten constant (Km) of uptake, 5 min, unlabeled imperatorin 0.01∼1 mM, pH 7.4", "value": 59, "unit": "µM"},
      {"measurement": "uptake after siRNA transfection", "setting": "[7]; rPmat, rOct 2, rOctn2 or rOctn1 siRNA", "value": "not significantly affected"},
      {"measurement": "IC50", "setting": "[8]; P-gp inhibition", "value": "> 90", "unit": "µM"},
      {"measurement": "efflux ratio", "setting": "[8]; larger than 3.0 = substrate of P-gp", "value": 0.5}
    ]},
    {"compound": "[Cl-].[K+]", "note": "[Potassium ion (KCl)]", "values": [
      {"measurement": "Relative Uptake (% of Control) of [^3H]imperatorin", "setting": "[1]; sodium replaced by potassium ion (KCl)", "value": "97.3 ± 2.3 % of Control"}
    ]},
    {"compound": "OC[C@H]1O[C@@](CO)(O[C@H]2O[C@H](CO)[C@@H](O)[C@H](O)[C@H]2O)[C@@H](O)[C@@H]1O", "note": "[sucrose]", "values": [
      {"measurement": "BBB PS product", "setting": "[9]", "value": "0.32 ± 0.52", "unit": "µL/min/g"}
    ]},
    {"compound": "CN(C)CCOC(c1ccccc1)c1ccccc1", "note": "[Diphenhydramine, diphenhydramine]", "values": [
      {"measurement": "Km", "setting": "[10]", "value": 59, "unit": "µM"}
    ]},
    {"compound": "CC(=O)O[C@H](CC(=O)[O-])C[N+](C)(C)C", "note": "[ALC, acetyl-L-carnitine]", "values": [
      {"measurement": "uptake after siRNA transfection", "setting": "[7]; Octn2 siRNA", "value": "significantly inhibited"}
    ]},
    {"compound": "CC[N+](CC)(CC)CC", "note": "[TEA]", "values": [
      {"measurement": "Brain volume of distribution (VD, % of Control) of [^3H]imperatorin", "setting": "[11]", "value": "103 ± 5 % of Control"},
      {"measurement": "BUI of [^3H]imperatorin in presence of inhibitor", "setting": "[4]; inhibitor 10 mM", "value": "48.6 ± 4.5", "unit": "%"},
      {"measurement": "Relative Uptake (% of Control) of [^3H]imperatorin", "setting": "[12]", "value": "107 ± 10 % of Control"}
    ]},
    {"compound": "Nc1ccc(C(=O)NCC(=O)O)cc1", "note": "[PAH]", "values": [
      {"measurement": "Brain volume of distribution (VD, % of Control) of [^3H]imperatorin", "setting": "[11]", "value": "94.4 ± 7.1 % of Control"},
      {"measurement": "BUI of [^3H]imperatorin in presence of inhibitor", "setting": "[4]; inhibitor 10 mM", "value": "58.5 ± 6.3", "unit": "%"}
    ]},
    {"compound": "C[n+]1ccc(-c2ccccc2)cc1", "note": "[MPP+, 1-Methyl-4-phenylpyridinium ion]", "values": [
      {"measurement": "Brain volume of distribution (VD, % of Control) of [^3H]imperatorin", "setting": "[11]", "value": "56.3 ± 5.8 % of Control"},
      {"measurement": "Relative Uptake (% of Control) of [^3H]imperatorin", "setting": "[12]", "value": "81.3 ± 3.9 % of Control"},
      {"measurement": "uptake after siRNA transfection", "setting": "[7]; rPmat siRNA", "value": "significantly inhibited"}
    ]},
    {"compound": "CNC[C@H](O)[C@@H](O)[C@H](O)[C@H](O)CO", "note": "[N-Methylglucamine (NMG), N-Methylglucamine]", "values": [
      {"measurement": "Relative Uptake (% of Control) of [^3H]imperatorin", "setting": "[1]; Na+ replacement by N-methylglucamine", "value": "97.4 ± 6.6 % of Control"}
    ]},
    {"compound": "carbonyl cyanide-p-trifluorome-thoxyphenylhydrazone [FCCP]", "values": [
      {"measurement": "Relative Uptake (% of Control) of [^3H]imperatorin", "setting": "[1]; 10 μM FCCP, pre-incubated 10 min, pH 7.4", "value": "56.2 ± 6.3 % of Control"}
    ]},
    {"compound": "COc1cccc(C2(O)CCCCC2CN(C)C)c1", "note": "(stereo not shown) [Tramadol, tramadol hydrochloride]", "values": [
      {"measurement": "Km", "setting": "[10]", "value": 49, "unit": "µM"}
    ]},
    {"compound": "C[N+](C)(C)C[C@H](O)CC(=O)[O-]", "note": "[L-Carnitine, L-carnitine]", "values": [
      {"measurement": "Brain volume of distribution (VD, % of Control) of [^3H]imperatorin", "setting": "[11]", "value": "79.2 ± 5.3 % of Control"},
      {"measurement": "Relative Uptake (% of Control) of [^3H]imperatorin", "setting": "[12]", "value": "86.4 ± 5.6 % of Control"}
    ]},
    {"compound": "CN1CCC[C@H]1c1cccnc1", "note": "[Nicotine, nicotine]", "values": [
      {"measurement": "BUI of [^3H]imperatorin in presence of inhibitor", "setting": "[4]; inhibitor 10 mM", "value": "27.6 ± 0.0", "unit": "%"}
    ]},
    {"compound": "Clc1cccc(Cl)c1N=C1NCCN1", "note": "[Clonidine, clonidine hydrochloride]", "values": [
      {"measurement": "BUI of [^3H]imperatorin in presence of inhibitor", "setting": "[4]; inhibitor 10 mM", "value": "33.9 ± 5.5", "unit": "%"},
      {"measurement": "Km", "setting": "[13]", "value": 600, "unit": "µM"}
    ]}
  ]
}
